This experiment deals with 18S and BRD4 transcripts in MOLM13 cells. In words: Cellular RNA degradation reactions (acCLICK-Seq), RT-qPCR. In kind it is cell-based, human. The procedure: MOLM13 cells were suspended RPMI-1640 media (Gibco) supplemented with 10% v/v FBS and 1% v/v penicillin/streptomycin/L-glutamine at a density of 1,000,000 cells mL^-1. The cells were incubated for 30 min at 37° C. followed by addition of ethyl-3-butynoate at a final concentration of 200 μM. Treated cells were incubated for further 24 h at 37° C. […] Levels of specific RNAs were measured using fast mode of QuantStudio 3 Real-Time PCR System (Applied Biosystems) and PowerUpTM SYBR Green Master Mix (Applied Biosystems) according to the manufacturer's instructions. In the qPCR analysis RNA levels were normalised to the 5S gene ([…]) or the GAPDH gene (glycoCLICK-seq). These housekeeping gene was chosen as their levels fluctuated the least under various conditions tested.

`C#CCC(=O)OCC` [ethyl-3-butynoate, Ethyl-3-butynoate]: the “relative expression levels of 18S and BRD4 transcripts, clicked versus non-clicked control cells” value (WT MOLM13, ethyl-3-butynoate 200 μM 24 h, then click-degrader 1 400 μM CuAAC) was “reduction”. In addition, the “expression levels of 18S and BRD4 transcripts in clicked cells” value (cells with NAT10 knocked-out) is “rescued”.
